Measurements taken from PubChem BioAssay AID248 (DTP/NCI, 2004).
Several values for one entry are separate records, joined by “and”; a condition that tells them apart may be missing. Equal values may be shown once. Inconclusive results and toxic doses are left out. No stated cut-off is given here; in the data, active means T/C of 150% or more; inactive means T/C below 125%.

Tested on: L1210 leukemia ip in BDF1 mice, survival T/C
Test: NCI In Vivo Anticancer Drug Screen. Data for tumor model L1210 Leukemia (intraperitoneal) in B6D2F1 (BDF1) mice
Details: endpoint: mean survival time, higher = longer survival
Outline: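 Ratio derived from survival: compound-dosed mice over vehicle-dosed mice, all bearing a transplantable tumor.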

[1] = dose: 100.0 mg/kg/injection, schedule: Q04DX003 (ip), vehicle: Klucel (hydroxypropylcellulose) (HPC)
[2] = dose: 100.0 mg/kg/injection, schedule: Q01DX001 (ip), vehicle: saline
[3] = dose: 200.0 mg/kg/injection, schedule: Q01DX001 (ip), vehicle: saline
[4] = dose: 400.0 mg/kg/injection, schedule: Q01DX001 (ip), vehicle: saline
[5] = dose: 12.5 mg/kg/injection, schedule: Q04DX003 (ip), vehicle: saline with Tween-80
[6] = dose: 100.0 mg/kg/injection, schedule: Q01DX001 (ip), vehicle: Klucel (hydroxypropylcellulose) (HPC)
[7] = dose: 200.0 mg/kg/injection, schedule: Q01DX001 (ip), vehicle: Klucel (hydroxypropylcellulose) (HPC)
[8] = dose: 400.0 mg/kg/injection, schedule: Q01DX001 (ip), vehicle: Klucel (hydroxypropylcellulose) (HPC)
[9] = dose: 25.0 mg/kg/injection, schedule: Q04DX003 (ip), vehicle: saline
[10] = dose: 50.0 mg/kg/injection, schedule: Q04DX003 (ip), vehicle: saline
[11] = dose: 100.0 mg/kg/injection, schedule: Q01DX001 (ip), vehicle: carboxymethylcellulose (CMC)
[12] = dose: 200.0 mg/kg/injection, schedule: Q01DX001 (ip), vehicle: carboxymethylcellulose (CMC)
[13] = dose: 400.0 mg/kg/injection, schedule: Q01DX001 (ip), vehicle: carboxymethylcellulose (CMC)
[14] = dose: 100.0 mg/kg/injection, schedule: Q01DX009 (ip), vehicle: Klucel (hydroxypropylcellulose) (HPC)
[15] = dose: 200.0 mg/kg/injection, schedule: Q01DX009 (ip), vehicle: Klucel (hydroxypropylcellulose) (HPC)
[16] = dose: 400.0 mg/kg/injection, schedule: Q01DX009 (ip), vehicle: Klucel (hydroxypropylcellulose) (HPC)
[17] = dose: 50.0 mg/kg/injection, schedule: Q01DX009 (ip), vehicle: saline
[18] = dose: 100.0 mg/kg/injection, schedule: Q04DX003 (ip), vehicle: saline
[19] = dose: 200.0 mg/kg/injection, schedule: Q01DX009 (ip), vehicle: saline
[20] = dose: 200.0 mg/kg/injection, schedule: Q04DX003 (ip), vehicle: saline
[21] = dose: 400.0 mg/kg/injection, schedule: Q04DX003 (ip), vehicle: saline

Measured: T/C

O=C(CCN1CC1)OC1CCCC1
inactive: dose: 0.25 mg/kg/injection, schedule: Q01DX009 (ip), vehicle: Klucel (hydroxypropylcellulose) (HPC) 91 % of control | dose: 0.5 mg/kg/injection, schedule: Q01DX009 (ip), vehicle: Klucel (hydroxypropylcellulose) (HPC) 97 % of control | dose: 1.0 mg/kg/injection, schedule: Q01DX009 (ip), vehicle: Klucel (hydroxypropylcellulose) (HPC) 103 % of control | dose: 2.5 mg/kg/injection, schedule: Q01DX009 (ip), vehicle: Klucel (hydroxypropylcellulose) (HPC) 100 % of control | dose: 20.0 mg/kg/injection, schedule: Q04DX003 (ip), vehicle: Klucel (hydroxypropylcellulose) (HPC) 98 % of control | dose: 40.0 mg/kg/injection, schedule: Q04DX003 (ip), vehicle: Klucel (hydroxypropylcellulose) (HPC) 97 % of control | dose: 80.0 mg/kg/injection, schedule: Q04DX003 (ip), vehicle: Klucel (hydroxypropylcellulose) (HPC) 97 % of control | [1] 102 % of control

CCCCCCCCCCCC(=O)OCCOCCOCCOCCOCCOCCOCCOCCOCCO
inactive: [2] 104 % of control | [3] 98 % of control | [4] 98 % of control

CCN(CC)c1cc[c]([Hg][O]C(C)=O)cc1
inactive: dose: 1.56 mg/kg/injection, schedule: Q04DX003 (ip), vehicle: saline with Tween-80 92 % of control | dose: 3.13 mg/kg/injection, schedule: Q04DX003 (ip), vehicle: saline with Tween-80 90 % of control | dose: 6.25 mg/kg/injection, schedule: Q04DX003 (ip), vehicle: saline with Tween-80 93 % of control and 94 % of control | [5] 93 % of control

O=C1CCc2nc(=O)c3c4ccccc4ccc3n21
inactive: [6] 94 % of control | [7] 100 % of control | [8] 99 % of control

NC(N)=N/N=C(/c1cccs1)C1CC1
inactive: dose: 15.0 mg/kg/injection, schedule: Q01DX Z (ip), vehicle: methylcellulose (MC) 101 % of control | dose: 15.0 mg/kg/injection, schedule: Q01DX Z (oral), vehicle: methylcellulose (MC) 92 % of control | dose: 30.0 mg/kg/injection, schedule: Q01DX Z (ip), vehicle: methylcellulose (MC) 96 % of control | dose: 30.0 mg/kg/injection, schedule: Q01DX Z (oral), vehicle: methylcellulose (MC) 97 % of control | dose: 60.0 mg/kg/injection, schedule: Q01DX Z (ip), vehicle: methylcellulose (MC) 110 % of control | dose: 120.0 mg/kg/injection, schedule: Q01DX Z (ip), vehicle: methylcellulose (MC) 97 % of control

Cc1ccc([N+](=O)[O-])cc1CN(CCO)CCO
inactive: [2] 101 % of control | [3] 95 % of control | [4] 98 % of control

O=S(=O)(c1ccc2ccccc2c1)C1CC1c1ccccc1 (configuration not stated)
inactive: dose: 100.0 mg/kg/injection, schedule: Q01DX001 (ip), vehicle: acetone 92 % of control | dose: 200.0 mg/kg/injection, schedule: Q01DX001 (ip), vehicle: acetone 98 % of control | dose: 400.0 mg/kg/injection, schedule: Q01DX001 (ip), vehicle: acetone 93 % of control

Cc1ccc(NC(=O)c2cccc(C(=O)Nc3ccc(C)cc3C)c2)c(C)c1
inactive: [5] 98 % of control | dose: 25.0 mg/kg/injection, schedule: Q04DX003 (ip), vehicle: saline with Tween-80 98 % of control | dose: 50.0 mg/kg/injection, schedule: Q04DX003 (ip), vehicle: saline with Tween-80 93 % of control | dose: 200.0 mg/kg/injection, schedule: Q04DX003 (ip), vehicle: saline with Tween-80 87 % of control

CC(C)(C)NCCC(=O)c1ccccc1
inactive: dose: 12.5 mg/kg/injection, schedule: Q04DX003 (ip), vehicle: saline 98 % of control | [9] 102 % of control | [10] 101 % of control

O=C(N/N=C/c1ccc(O)cc1O)C(O)(c1ccccc1)c1ccccc1
inactive: [11] 106 % of control | [12] 106 % of control | [13] 108 % of control

CON(C)c1nc(Cl)nc(N(C)OC)n1
inactive: [11] 96 % of control | [14] 97 % of control | [12] 94 % of control | [15] 105 % of control | [13] 107 % of control | [16] 105 % of control

O=[N+]([O-])c1cccc(/C=C/C=C/c2ccc(Cl)c(Cl)c2)c1
inactive: dose: 100.0 mg/kg/injection, schedule: Q04DX002 (ip), vehicle: Klucel (hydroxypropylcellulose) (HPC) 100 % of control | dose: 200.0 mg/kg/injection, schedule: Q04DX002 (ip), vehicle: Klucel (hydroxypropylcellulose) (HPC) 93 % of control | dose: 400.0 mg/kg/injection, schedule: Q04DX002 (ip), vehicle: Klucel (hydroxypropylcellulose) (HPC) 96 % of control

CNC(CNC(CO)CC(C)C)Cc1ccc(OCc2ccccc2)cc1 (configuration not stated)
inactive: dose: 12.5 mg/kg/injection, schedule: Q01DX009 (ip), vehicle: saline 102 % of control | dose: 25.0 mg/kg/injection, schedule: Q01DX009 (ip), vehicle: saline 91 % of control | [9] 95 % of control | [17] 94 % of control | [10] 95 % of control | [18] 95 % of control

C=C1C(=O)OC2CCC(O)C12 (configuration not stated)
inactive: dose: 25.0 mg/kg/injection, schedule: Q01DX001 (ip), vehicle: saline 94 % of control | dose: 50.0 mg/kg/injection, schedule: Q01DX001 (ip), vehicle: saline 108 % of control | [2] 105 % of control

O=C1CC2CC(=O)CC2C1 (configuration not stated)
inactive: [6] 104 % of control | [18] 105 % of control | [7] 97 % of control | [19] 90 % of control | [20] 105 % of control | [8] 98 % of control | [21] 94 % of control

CC(=O)C[n+]1ccccc1Br
inactive: dose: 62.0 mg/kg/injection, schedule: Q01DX015 (ip), vehicle: water 87 % of control | dose: 125.0 mg/kg/injection, schedule: Q01DX015 (ip), vehicle: water 100 % of control

ClC1=C(Cl)C2(Cl)CCC1(Cl)C2Cl (configuration not stated)
inactive: [17] 103 % of control | dose: 100.0 mg/kg/injection, schedule: Q01DX009 (ip), vehicle: saline 98 % of control | [18] 104 % of control | [19] 95 % of control | [20] 103 % of control | [21] 97 % of control

CC(=O)CC(C)=Nc1ccc([N+](=O)[O-])cc1.CC(=O)CC(C)=Nc1ccc([N+](=O)[O-])cc1.[Cu]
inactive: dose: 12.5 mg/kg/injection, schedule: Q01DX001 (ip), vehicle: saline with Tween-80 93 % of control | dose: 25.0 mg/kg/injection, schedule: Q01DX001 (ip), vehicle: saline with Tween-80 88 % of control | dose: 50.0 mg/kg/injection, schedule: Q01DX001 (ip), vehicle: saline with Tween-80 91 % of control

COc1cccc(NC(=O)Nc2ccccc2OC)c1
inactive: [14] 106 % of control | [1] 100 % of control | [15] 108 % of control | dose: 200.0 mg/kg/injection, schedule: Q04DX003 (ip), vehicle: Klucel (hydroxypropylcellulose) (HPC) 97 % of control | [16] 103 % of control | dose: 400.0 mg/kg/injection, schedule: Q04DX003 (ip), vehicle: Klucel (hydroxypropylcellulose) (HPC) 100 % of control
